Test results published in patent EP0938474B1, “CYCLOPROPYLINDOLE COMPOUNDS AND THEIR USE AS PRODRUGS” (AUCKLAND UNISERVICES LIMITED, priority 1996, dated 1998).

System: UV4
Assay: Cytotoxicity (growth inhibition), 4 h drug exposure, methylene blue staining
Type: cell-based, rodent
Conditions: Cricetulus griseus; UV4 mutant AA8 line defective in excision repair; 4 hours exposure, then three days incubation
Procedure: Compounds of the invention were tested for cytotoxicity against four different cell lines, all of which are widely available in the art. AA8 is a wild type rodent cell line. UV4 is a mutant AA8 cell line defective in excision repair, and hypersensitive to many alkylating agents. EMT6 is a widely-used rodent line. SKOV is a human ovarian cell line.
Cell culture assays were performed in 96-well microtitre trays. Compounds of the invention were added in culture medium, using serial two-fold dilutions to provide duplicate cultures at five different concentrations for each of eight drugs (plus eight controls) per tray. Drugs were dissolved in water or DMSO immediately prior to addition to the cell culture. After 4 hours, drugs were removed by washing cultures three times with fresh medium, and the trays were incubated for a futher three days. Cell density was then determined by staining with methylene blue as described previously (Finlay, G. J., et al, Anal. Biochm. 1984, 139, 272-277) and the IC50 was calculated as the drug concentration providing 50% inhibition of growth relative to the controls.

COc1cc2cc(C(=O)N3CC(COS(C)(=O)=O)c4c3cc(N)c3ccccc43)[nH]c2c(OC)c1OC (stereo not shown) [15o, 5-amino-1-[(methanesulfonyloxy)methyl]-3-[(5,6,7-trimethoxyindol-2-yl)carbonyl]-1,2-dihydro-3H-benz[e]indole]
IC50: 665 nM
